Patent US20260083750A1, “SMALL MOLECULE INHIBITORS OF KRAS PROTEINS” (MERCK SHARP & DOHME LLC, priority 2022, published 2026)

How the values were obtained:
[1] = target: T1, KRAS-G12D (Homo sapiens, UniProt P01116, G12D); assay: SOS-catalyzed nucleotide exchange assay (Procedure A, TR-FRET); assay type: biochemical; settings: 60 min preincubation, SOS + GTP, read-out: KRAS G12D GNE IC50
T1 construct: N-terminal biotin-acceptor peptide […]
Description: (§1) Procedure for SOS-Catalyzed Nucleotide Exchange Assay for KRAS-G12C/D/V, G13D, HRAS, and NRAS (Procedure A)
(§2) Recombinant KRAS-G12C protein used in this assay has an additional triple mutation (C51S/C80L/C118S), whereas KRAS-G12D/V, G13D, HRAS and NRAS are in context of their WT protein sequence background. Specifically, the SOS-catalyzed nucleotide exchange assay utilizes a preformed TR-FRET complex containing a specific biotinylated RAS protein (KRAS-G12C/V/D, G13D, HRAS, NRAS; described above) with Bodipy-GDP, and Terbium-streptavidin. Compounds are preincubated with this complex for 60 minutes. Subsequently, recombinant human SOS protein and unlabeled GTP are added to initiate the exchange reaction. Small molecule inhibitors stabilize the Bodipy-GDP complex whereas the untreated protein rapidly exchanges Bodipy-GDP for unlabeled GTP resulting in reduced TR-FRET signal.
(§3) To assemble the preformed TR-FRET complexes, each biotinylated RAS protein is diluted to 2 μM in an EDTA Buffer (20 mM HEPES pH 7.5, 50 mM sodium chloride, 10 mM EDTA, and 0.01% Tween) and incubated at room temperature for one hour. This mixture is then further diluted to 90 nM in an Assay Buffer (20 mM HEPES pH 7.5, 150 mM sodium chloride, 10 mM magnesium chloride, and 0.005% Tween) containing 15 nM of Terbium-Streptavidin (Invitrogen, catalog #PV3577) and 900 nM of Bodipy-GDP (Invitrogen, catalog #G22360) and incubated at room temperature for six hours. It should be noted that this preformed TR-FRET complex for each of the RAS protein were made ahead of time, aliquoted and stored at −80° C. until the day of the experiment.
(§4) Each test compound (10 mM stock in DMSO) is diluted in DMSO to make a final-10-point, 3-fold dilution and is acoustically dispensed into a 384-well assay plate (Corning, catalog #3820) using an Echo 550 (Labcyte). Each well of the assay plate receives 3 μL of a specific 3× RAS preformed TR-FRET complex and 3 μL of Assay Buffer and is incubated at room temperature for 60 minutes (preincubation time). Each well then receives 3 μL of 3× recombinant human SOS protein and GTP (Sigma, G8877) in Assay Buffer and is incubated at room temperature for 30 minutes (G13D), 60 minutes (G12C/D, H/NRAS) or 90 minutes for G12V. The final reaction in each well of […] consists of 3 mM GTP, specific Ras and SOS proteins in the following concentrations: KRAS-G12C/SOS=3 nM/40 nM, KRAS-G12D/SOS=1 nM/40 nM, KRAS-G12V/SOS=1.25 nM/160 nM, KRAS-G13D/SOS=1.25 nM/0 nM, HRAS & NRAS=1.25 nM/40 nM.
(§5) The time-resolved fluorescence resonance energy transfer (TR-FRET) signal is measured on an Envision (PerkinElmer) plate reader: Excitation filter=340 nm; emission1=495 nm; emission2=520 nm; dichroic mirror=D400/D505; delay time=[…]. The signal of each well is determined as the ratio of the emission at 520 nm to that at 495 nm. […] The apparent effect as a function of compound concentration is fit to a four-parameter logistic equation.

[2] = target: T2, KRAS-G12V (Homo sapiens, UniProt P01116, G12V); assay: as above; assay type: biochemical; settings: 60 min preincubation, SOS + GTP, read-out: KRAS G12V GNE IC50
T2 construct: N-terminal biotin-acceptor peptide […]
T2 sequence (P01116 with tags, fused parts or gaps isoform P01116-2 G12V): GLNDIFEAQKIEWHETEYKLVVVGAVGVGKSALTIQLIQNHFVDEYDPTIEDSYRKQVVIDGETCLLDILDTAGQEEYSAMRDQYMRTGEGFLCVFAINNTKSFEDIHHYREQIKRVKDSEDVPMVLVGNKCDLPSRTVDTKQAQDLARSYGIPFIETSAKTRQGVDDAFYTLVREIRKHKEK
Description: as §1, §2, §3, §4, §5

[3] = target: T3, KRAS-G12C (C51S/C80L/C118S) (Homo sapiens, UniProt P01116, C118S/C51S/C80L/G12C); assay: as above; assay type: biochemical; settings: 60 min preincubation, SOS + GTP, read-out: KRAS G12C GNE IC50
T3 construct: N-terminal biotin-acceptor peptide […]
T3 sequence (P01116 with tags, fused parts or gaps isoform P01116-2 G12C/C51S/C80L/C118S): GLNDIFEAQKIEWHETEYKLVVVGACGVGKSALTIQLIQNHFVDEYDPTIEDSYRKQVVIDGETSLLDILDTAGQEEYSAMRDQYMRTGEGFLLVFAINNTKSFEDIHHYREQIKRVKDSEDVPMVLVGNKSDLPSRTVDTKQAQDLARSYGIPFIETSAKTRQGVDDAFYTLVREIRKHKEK
Description: as §1, §2, §3, §4, §5

[4] = target: T4, KRAS-G13D (Homo sapiens, UniProt P01116, G13D); assay: as above; assay type: biochemical; settings: 60 min preincubation, GTP, read-out: KRAS G13D GNE IC50
T4 construct: N-terminal biotin-acceptor peptide […]
T4 sequence (P01116 with tags, fused parts or gaps isoform P01116-2 G13D): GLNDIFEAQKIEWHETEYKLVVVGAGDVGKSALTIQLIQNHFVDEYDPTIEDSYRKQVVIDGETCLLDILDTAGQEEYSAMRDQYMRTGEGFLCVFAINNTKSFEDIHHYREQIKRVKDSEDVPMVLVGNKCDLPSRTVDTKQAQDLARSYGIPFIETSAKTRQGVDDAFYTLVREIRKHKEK
Description: as §1, §2, §3, §4, §5

[5] = target: HRAS (Homo sapiens, UniProt P01112); assay: as above; assay type: biochemical; settings: 60 min preincubation, SOS + GTP, read-out: HRAS GNE IC50
HRAS, sequence (P01112 with tags, fused parts or gaps): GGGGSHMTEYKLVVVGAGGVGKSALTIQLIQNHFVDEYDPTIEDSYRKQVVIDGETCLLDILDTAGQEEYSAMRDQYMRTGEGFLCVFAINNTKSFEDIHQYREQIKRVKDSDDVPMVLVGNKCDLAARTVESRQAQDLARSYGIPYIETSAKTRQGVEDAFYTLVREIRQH
Description: as §1, §2, §3, §4
(§6) The time-resolved fluorescence resonance energy transfer (TR-FRET) signal is measured on an Envision (PerkinElmer) plate reader: Excitation filter=340 nm; emission1=495 nm; emission2=520 nm; dichroic mirror=D400/D505; delay time=[…]. The signal of each well is determined as the ratio of the emission at 520 nm to that at 495 nm. Percent effect of each well is determined after normalization to control wells containing DMSO (no effect) or a saturating concentration of inhibitor (max effect). The apparent effect as a function of compound concentration is fit to a four-parameter logistic equation.

[6] = target: NRAS (Homo sapiens, UniProt P01111); assay: as above; assay type: biochemical; settings: 60 min preincubation, SOS + GTP, read-out: NRAS GNE IC50
NRAS, sequence (P01111 with tags, fused parts or gaps): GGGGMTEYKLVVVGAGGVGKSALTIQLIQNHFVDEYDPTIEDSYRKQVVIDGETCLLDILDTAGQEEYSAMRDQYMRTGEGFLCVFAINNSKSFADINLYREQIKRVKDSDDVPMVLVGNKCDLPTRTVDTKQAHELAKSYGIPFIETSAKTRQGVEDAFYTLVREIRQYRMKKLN
Description: as §1, §2, §3, §4, §6

[7] = tested on: PANC08.13 cells (homozygous KRAS-G12D activating mutation); assay: Cellular phospho-ERK assay in G12D cell line; assay type: cell-based; settings: Homo sapiens, PANC-08-13, 2 hours compound incubation, ratio of p-ERK vs. total ERK, read-out: PANC 0813 pERK IC50
Procedure: (§7) Procedure for Cellular Phospho-ERK Assay in G12D and G12V Cell Lines
(§8) PANC08.13 cells (ATCC® CRL-2551™), containing homozygous KRAS-G12D activating mutation, were cultured in growth medium made of RPMI1640-GlutaMAX™—I (ThermoFisher Scientific 61870) containing 15% heat inactivated fetal bovine serum (ThermoFisher Scientific 10091148)). SW620 cells (ATCC® […]), containing homozygous KRAS-G12V activating mutation, were cultured in growth medium that contains RPMI 1640-GlutaMAX™—I (ThermoFisher Scientific 61870) containing 10% heat inactivated fetal bovine serum (ThermoFisher Scientific 10091148).
(§9) Cells for the assay were harvested in growth medium after TrypLE (ThermoFisher scientific 12604021) digestion and were seeded in a 384-well collagen coated cell culture plate (Corning 356702) at a density of 10,000-15,000 cells/20 uL/well, and incubated at 37° C., 5% CO2 overnight. The compound (with 10 mM stock concentration) dose-response titrations were prepared [30 μM final ERK detection assay concentration and 1:3 dilutions, 10-point dose response] and appropriate amounts (270 nL) of test compounds were dispensed in a 384-well intermediate plate using an Echo 550 liquid handler. 30 uL/well of RPMI medium 1640-GlutaMAX™—I was added to the intermediate plate and the contents of the intermediate plate (10 uL/well) were then transferred to the 384-well collagen coated cell culture plate, which was incubated at 37° C., 5% CO2 for 2 hours. After removal of medium from the collagen coated cell culture plate, cells were lysed in lysis buffer from Alpha SureFire® Ultra™ Multiplex p-ERK and total ERK assay kit (PerkinElmer MPSU-PTERK) containing Halt™ Protease and Phosphatase inhibitor cocktail (ThermoFisher Scientific 78446) at room temperature with constant shaking at 300 rpm for 30 minutes. The cell lysates were then transferred to an OptiPlate-384 plate (PerkinElmer 6005620), and the phosphorylation of ERK (p-ERK) and total ERK levels were detected by Alpha SureFire® Ultra™ Multiplex p-EEK kit and total ERK assay kit (PerkinElmer MPSU-PTERK) following the manufacturer's protocol. Assay plates were read on a EnVision Multimode Plate Reader (PerkinElmer), and the ratio of p-ERK vs. total ERK in each well was used as the final readout. Dose response curves were analyzed using a 4-parameter logistic model to calculate IC50 values using Spotfire software.

[8] = tested on: SW620 cells (homozygous KRAS-G12V activating mutation); assay: Cellular phospho-ERK assay in G12V cell line; assay type: cell-based; settings: Homo sapiens, SW-620, 2 hours compound incubation, ratio of p-ERK vs. total ERK, read-out: SW620 pERK IC50
Procedure: as §7, §8, §9

T1 sequence (P01116 with tags, fused parts or gaps isoform P01116-2 G12D): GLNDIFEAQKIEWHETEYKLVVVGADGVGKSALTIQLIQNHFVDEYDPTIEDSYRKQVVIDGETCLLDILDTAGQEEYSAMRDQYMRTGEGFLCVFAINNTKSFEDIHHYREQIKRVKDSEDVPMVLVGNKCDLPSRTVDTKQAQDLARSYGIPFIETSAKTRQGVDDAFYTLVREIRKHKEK

IC50 [3] | IC50 [4] | Compound | IC50 [1] | IC50 [2] | IC50 [5] | IC50 [6] | IC50 [7] | IC50 [8]
– | – | N#Cc1c(N)sc2c(F)ccc(-c3c(Cl)cc4c(N5CCCCCC5)nc(OC[C@@]56CCCN5C[C@H](F)C6)nc4c3F)c12 [Ex. 1, 2-amino-4-(4-(azepan-1-yl)-6-chloro-8-fluoro-2-(((2R,7aS)-2-fluorotetrahydro-1H-pyrrolizin-7a(5H)-yl)methoxy)quinazolin-7-yl)-7-fluorobenzo[b]thiophene-3-carbonitrile] | – | – | > 11100 nM | > 11100 nM | 68.8 nM | 74.5 nM
– | – | C[C@@H]1CCCCCN1c1nc(OC[C@@]23CCCN2C[C@H](F)C3)nc2c(F)c(-c3ccc(F)c4sc(N)c(C#N)c34)c(Cl)cc12 [Ex. 2, 2-amino-4-(6-chloro-8-fluoro-2-(((2R,7aS)-2-fluorotetrahydro-1H-pyrrolizin-7a(5H)-yl)methoxy)-4-((R)-2-methylazepan-1-yl)quinazolin-7-yl)-7-fluorobenzo[b]thio-phene-3-carbonitrile] | 8.61 nM | 13.2 nM | – | – | 372 nM | 408 nM
51.1 nM | 63.7 nM | N#Cc1c(N)sc2c(F)ccc(-c3c(Cl)cc4c(N5CCOCCC5C5CC5)nc(OC[C@@]56CCCN5C[C@H](F)C6)nc4c3F)c12 (stereo partly drawn) [compound 17, 2-amino-4-(6-chloro-4-(5-cyclopropyl-1,4-oxazepan-4-yl)-8-fluoro-2-(((2R,7aS)-2-fluorotetrahydro-1H-pyrrolizin-7a(5H)-yl)methoxy)quinazo-lin-7-yl)-7-fluorobenzo[b]thio-phene-3-carbonitrile] | 188 nM | 44.1 nM | > 11100 nM | > 11100 nM | 2260 nM | –
22.6 nM | 44.8 nM | C[C@H]1CCOCCN1c1nc(OC[C@]2(CN(C)C)CC2(F)F)nc2c(F)c(-c3ccc(F)c4sc(N)c(C#N)c34)ncc12 [compound 22, 2-amino-4-(2-(((R)-1-((dimethylamino)meth-yl)-2,2-difluorocyclopropyl)methoxy)-8-fluoro-4-((S)-5-methyl-1,4-oxazepan-4-yl)pyrido[4,3-d]pyrimidin-7-yl)-7-fluorobenzo[b]thiophene-3-carbonitrile] | 253 nM | 49.5 nM | > 11100 nM | > 11100 nM | 413 nM | –
– | – | CCNC[C@@]1(COc2nc(N3CCCOCC3)c3cc(Cl)c(-c4ccc(F)c5sc(N)c(C#N)c45)c(F)c3n2)CC1(F)F [compound 30, 2-amino-4-(6-chloro-2-(((R)-1-((ethylamino)methyl)-2,2-difluorocyclopropyl)methoxy)-8-fluoro-4-(1,4-oxazepan-4-yl)quinazolin-7-yl)-7-fluorobenzo[b]thiophene-3-carbonitrile] | 206 nM | 33 nM | – | – | 849 nM | 305 nM
30.5 nM | 17.2 nM | CN1CCC[C@H]1COc1nc(N2CCCOCC2)c2cc(Br)c(-c3ccc(F)c4sc(N)c(C#N)c34)c(F)c2n1 [compound 38, 2-amino-4-(6-bromo-8-fluoro-2-(((S)-1-methylpyrrolidin-2-yl)methoxy)-4-(1,4-oxazepan-4-yl)quinazolin-7-yl)-7-fluorobenzo[b]thiophene-3-carbonitrile] | 47.1 nM | 8.97 nM | > 11100 nM | > 11100 nM | 300 nM | –

Compound | IC50 [3] | IC50 [4] | IC50 [1] | IC50 [2] | IC50 [5] | IC50 [6] | IC50 [7] | IC50 [8]
C[C@H]1CCOCCN1c1nc(OC[C@@]23CCCN2C[C@H](F)C3)nc2c(F)c(-c3ccc(F)c4sc(N)c(C#N)c34)c(Cl)cc12 (single isomer, unassigned) [Ex. 19] | 6.07 nM | 2.37 nM | 2.4 nM | 2.32 nM | 2070 nM | 4310 nM | 34.2 nM | 15 nM
C[C@H]1CCCCCN1c1nc(OC[C@@]23CCCN2C[C@H](F)C3)nc2c(F)c(-c3ccc(F)c4sc(N)c(C#N)c34)c(Cl)cc12 [Ex. 3, 2-amino-4-(6-chloro-8-fluoro-2-(((2R,7aS)-2-fluorotetrahydro-1H-pyrrolizin-7a(5H)-yl)methoxy)-4-((S)-2-methylazepan-1-yl)quinazolin-7-yl)-7-fluorobenzo[b]thio-phene-3-carbonitrile] | 30.9 nM | 54.6 nM | 113 nM | 40.3 nM | > 11100 nM | > 11100 nM | 776 nM | 806 nM
